Experimental data: patent US4303657A, “Nitrohydroxyalkyl-substituted quinoxaxiline dioxides and alkanoic acid esters thereof” (International Minerals & Chemical Corp., priority 1979, dated 1981)
In brackets after ≈: the same amount, converted by molar mass.

Experiments:
[1] = Growth rate and feed efficiency of animals when included in the feed rations (statement); format: in vivo; conditions: in words
Description: It is an embodiment of this invention to provide a method for promoting the growth of animals and improving their feed efficiency by administering to them a compound of this invention.
The method of administration of a compound of this invention is to incorporate it in the feed rations intended for the animal at a concentration of about 50-150 g/ton of feed, preferably about 100 g/ton. The animals are permitted to feed at liberty throughout the growth period. There are many specialized feed rations for different species of animals. The compounds of this invention can be used with any of the known rations.

[2] = Growth promotion and improved feed efficiency feeding test (rye diet); format: in vivo, male two-day-old broiler-type chicks; conditions: for Increase in feed efficiency / Increase in weight: over control group
Method: Growth promotion and improved feed efficiency were determined as follows:
Two groups of male two-day-old broiler-type chicks were placed into Petersime starter batteries and given feed and water ad libitum for the duration of each test. Each group was subdivided into six sub-groups with ten birds in each sub-group, thus providing sixty birds per group. One group received the basal feed ration, as given in Table 1 and served as a control. The other group receives the same ration, but in addition there was included P-2229 at a concentration of 100 g/ton. The basal ration was a rye diet which alters the microflora of the gut in the bird which results in a growth depressant effect. When a growth stimulant or promotant is added to the diet, the effect on the birds performance will be more apparent than if a corn base diet was used.
The test period was thirteen days. Individual live body weights and pen feed efficiencies were taken at 2 and 14 days of age.

Staphylococcus aureus = test: Minimum inhibitory concentration, Staphylococcus aureus; format: cell-based
[3] = test system: Streptococcus hemolyticus; test: Minimum inhibitory concentration, Streptococcus hemolyticus; format: cell-based; conditions: Streptococcus pyogenes
Escherichia coli = test: Minimum inhibitory concentration, Escherichia coli; format: cell-based
[4] = test system: Pasteurella pseudotuberculosis; test: microbe, parasite or virus in culture; format: cell-based; conditions: Yersinia pseudotuberculosis
Pseudomonas aeruginosa = test: Minimum inhibitory concentration, Pseudomonas aeruginosa; format: cell-based
Shigella dysenteriae = test: Minimum inhibitory concentration, Shigella dysenteriae; format: cell-based
Mycobacterium ranae = test: Minimum inhibitory concentration, Mycobacterium ranae; format: cell-based
Aspergillus niger = test: Minimum inhibitory concentration, Aspergillus niger; format: cell-based
Candida albicans = test: Minimum inhibitory concentration, Candida albicans; format: cell-based
Pencillium sp. = test: Minimum inhibitory concentration, Pencillium sp.; format: cell-based
Aspergillus fumigatus = test: Minimum inhibitory concentration, Aspergillus fumigatus; format: cell-based
[5] = Table 3, feed consumed to weight gained, control 1.82
[6] = Table 2, feed consumed to weight gained, control 1.56
[7] = Table 2, test of Example 1 repeated, control 208.77
[8] = when tested in feed rations, in words
[9] = Table 1, 100 g/ton in feed, 13 days

Structure (SMILES): CCC(C)(C(O)c1c[n+]([O-])c2ccccc2[n+]1[O-])[N+](=O)[O-] (stereo not drawn) [Example 14, 2-(1-hydroxy-2-methyl-2-nitrobutyl)quinoxaline-1,4-dioxide]
- feed efficiency ([1]; present-tense example): increases the feed efficiency
- growth rate ([1]; present-tense example): improves the growth rate

Structure (SMILES): CC(=O)OC(c1c[n+]([O-])c2ccccc2[n+]1[O-])C(C)[N+](=O)[O-] (stereo not drawn) [Example P-2242, 2-(1-acetoxy-2-nitropropyl)quinoxaline-1,4-dioxide]
- Body weight gain, av ([2]; Table 5, control 165.7): 210.6 g
- feed efficiency ([2]; Table 5, feed consumed to weight gained, control 1.57): 1.48
- Increase in feed efficiency ([2]; Table 5): 5.7
- Increase in weight ([2]; Table 5): 27.1%

Structure (SMILES): CCC(C(OC(C)=O)c1c[n+]([O-])c2ccccc2[n+]1[O-])[N+](=O)[O-] (stereo not drawn) [Example P-2277, 2-(1-acetoxy-2-nitrobutyl)quinoxaline-1,4-dioxide]
- feed efficiency [1]: increases the feed efficiency
- growth rate [1]: improves the growth rate

Structure (SMILES): CCC(COC(C)=O)(C(OC(C)=O)c1c[n+]([O-])c2ccccc2[n+]1[O-])[N+](=O)[O-] (stereo not drawn) [Example 12, 2-(1-acetoxy-2-acetoxymethyl-2-nitrobutyl)quinoxaline-1,4-dioxide]
- feed efficiency ([1]; present-tense example): increases the feed efficiency
- growth rate ([1]; present-tense example): improves the growth rate

Structure (SMILES): CCC(C(O)c1c[n+]([O-])c2ccccc2[n+]1[O-])[N+](=O)[O-] (stereo not drawn) [Example P-2246, 2-(1-hydroxy-2-nitrobutyl)quinoxaline-1,4-dioxide]
- Body weight gain, av ([2]; Table 3, control 128.6): 194.7 g
- feed efficiency [2, 5]: 1.54
- Increase in feed efficiency ([2]; Table 3): 15.4
- Increase in weight ([2]; Table 3): 51.4%

Structure (SMILES): CCCC(C(O)c1c[n+]([O-])c2ccccc2[n+]1[O-])[N+](=O)[O-] (stereo not drawn) [Example 13, 2-(1-hydroxy-2-nitropentyl)quinoxaline-1,4-dioxide]
- feed efficiency ([1]; present-tense example): increases the feed efficiency
- growth rate ([1]; present-tense example): improves the growth rate

Structure (SMILES): CCC(C)(C(OC(C)=O)c1c[n+]([O-])c2ccccc2[n+]1[O-])[N+](=O)[O-] (stereo not drawn) [Example 17, 2-(1-acetoxy-2-methyl-2-nitrobutyl)quinoxaline-1,4-dioxide]
- feed efficiency ([1]; present-tense example): increases the feed efficiency
- growth rate ([1]; present-tense example): improves the growth rate

Structure (SMILES): CC(=O)OC(C[N+](=O)[O-])c1c[n+]([O-])c2ccccc2[n+]1[O-] (stereo not drawn) [Example P-2243, 2-(1-acetoxy-2-nitroethyl)quinoxaline-1,4-dioxide]
- Body weight gain, av ([2]; Table 6, control 144.7): 240.5 g
- feed efficiency ([2]; Table 6, feed consumed to weight gained, control 1.69): 1.48
- Increase in feed efficiency ([2]; Table 6): 12.4
- Increase in weight ([2]; Table 6): 66.2%

Structure (SMILES): CC(C(O)c1c[n+]([O-])c2ccccc2[n+]1[O-])[N+](=O)[O-] (stereo not drawn) [Example P-2230, 2-(1-hydroxy-2-nitropropyl)quinoxaline-1,4-dioxide]
- feed efficiency [2, 6]: 1.45
- Increase in feed efficiency ([2]; Table 2): 7.1
- Increase in weight ([2]; Table 2): 6.5%
- Body weight gain, av [2, 7]: 222.37 g

Structure (SMILES): CCC(CO)(C(O)c1c[n+]([O-])c2ccccc2[n+]1[O-])[N+](=O)[O-] (stereo not drawn) [Example P-2280, 2-(1-hydroxy-2-hydroxymethyl-2-nitrobutyl)quinoxaline-1,4-dioxide]
- feed efficiency [2, 8]: improved efficiency
- growth rate [2, 8]: improved growth rate
- MIC (Staphylococcus aureus): 500 to 1000 µg/mL (≈ 1620 to 3230 µM)
- MIC [3]: 500 to 1000 µg/mL (≈ 1620 to 3230 µM)
- MIC (Escherichia coli): 100 to 500 µg/mL (≈ 323 to 1620 µM)
- MIC [4]: 50 to 100 µg/mL (≈ 162 to 323 µM)
- MIC (Pseudomonas aeruginosa): 500 to 1000 µg/mL (≈ 1620 to 3230 µM)
- MIC (Shigella dysenteriae): 500 to 1000 µg/mL (≈ 1620 to 3230 µM)
- MIC (Mycobacterium ranae): 50 to 100 µg/mL (≈ 162 to 323 µM)
- MIC (Aspergillus niger): 100 to 500 µg/mL (≈ 323 to 1620 µM)
- MIC (Candida albicans): 100 to 500 µg/mL (≈ 323 to 1620 µM)
- MIC (Pencillium sp.): 100 to 500 µg/mL (≈ 323 to 1620 µM)
- MIC (Aspergillus fumigatus): 500 to 1000 µg/mL (≈ 1620 to 3230 µM)

Structure (SMILES): COC(=O)C(C(OC(C)=O)c1c[n+]([O-])c2ccccc2[n+]1[O-])[N+](=O)[O-] (stereo not drawn) [Example P-2236]
- Body weight gain, av ([2]; Table 4, control 97.33): 154.92 g
- feed efficiency ([2]; Table 4, feed consumed to weight gained, control 1.84): 1.56
- Increase in feed efficiency ([2]; Table 4): 15.2
- Increase in weight ([2]; Table 4): 59.17%

Structure (SMILES): CC(C)(C(O)c1c[n+]([O-])c2ccccc2[n+]1[O-])[N+](=O)[O-] (stereo not drawn) [Example P-2265, 2-(1-hydroxy-2-methyl-2-nitropropyl)quinoxaline-1,4-dioxide]
- Body weight gain, av ([2]; Table 3, control 128.6): 188.7 g
- feed efficiency [2, 5]: 1.59
- Increase in feed efficiency ([2]; Table 3): 12.6
- Increase in weight ([2]; Table 3): 46.7%

Structure (SMILES): CCCC(C(OC(C)=O)c1c[n+]([O-])c2ccccc2[n+]1[O-])[N+](=O)[O-] (stereo not drawn) [Example 16, 2-(1-acetoxy-2-nitropentyl)quinoxaline-1,4-dioxide]
- feed efficiency ([1]; present-tense example): increases the feed efficiency
- growth rate ([1]; present-tense example): improves the growth rate

Structure (SMILES): O=[N+]([O-])CC(O)c1c[n+]([O-])c2ccccc2[n+]1[O-] (stereo not drawn) [Example P-2231, 2-(1-hydroxy-2-nitroethyl)-quinoxaline-1,4-dioxide]
- feed efficiency [2, 6]: 1.46
- Increase in feed efficiency ([2]; Table 2): 6.4
- Increase in weight ([2]; Table 2): 6.1%
- Body weight gain, av [2, 7]: 221.54 g

Structure (SMILES): CC(=O)OC(c1c[n+]([O-])c2ccccc2[n+]1[O-])C1([N+](=O)[O-])CCCCC1 (stereo not drawn) [Example 18]
- feed efficiency ([1]; present-tense example): increases the feed efficiency
- growth rate ([1]; present-tense example): improves the growth rate

Structure (SMILES): CC(=O)OC(c1c[n+]([O-])c2ccccc2[n+]1[O-])C(C)(C)[N+](=O)[O-] (stereo not drawn) [Example P-2284, 2-(1-acetoxy-2-methyl-2-nitropropyl)quinoxaline-1,4-dioxide]
- feed efficiency [1]: increases the feed efficiency
- growth rate [1]: improves the growth rate

Structure (SMILES): O=[N+]([O-])C1(C(O)c2c[n+]([O-])c3ccccc3[n+]2[O-])CCCCC1 (stereo not drawn) [Example 15, α-(1-nitrocyclohexyl)-2-quinoxalinemethanol-1,4-dioxide]
- feed efficiency ([1]; present-tense example): increases the feed efficiency
- growth rate ([1]; present-tense example): improves the growth rate

Structure (SMILES): COC(=O)C(C(O)c1c[n+]([O-])c2ccccc2[n+]1[O-])[N+](=O)[O-] (stereo not drawn) [Example P-2229, methyl-α-nitro-β-hydroxy-2-quinoxalinepropionate-1,4-dioxide]
- Body weight gain, av ([2]; Table 1, 100 g/ton in feed, 13 days, control 208.73): 218.75 g
- feed efficiency ([2]; Table 1, feed consumed to weight gained, control 1.49): 1.48
- Increase in feed efficiency [2, 9]: 0.7%
- Increase in weight [2, 9]: 4.8%
